Source: PubChem BioAssay AID256 (DTP/NCI, 2004)
Several values for one entry are separate records, joined by “and”; a condition that tells them apart may be missing. Identical values can stand only once. Toxic doses and inconclusive results are not listed. The calls were made as follows: active = survival T/C of 150% or more; inactive = T/C below 125% in these data.

Tested on: CD2F1 mice, L1210 leukemia ip, survival T/C
Experiment: NCI In Vivo Anticancer Drug Screen. Data for tumor model L1210 Leukemia (intraperitoneal) in CD2F1 (CDF1) mice
Settings: higher = longer survival
In short: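 Transplantable tumor in mice; compound-treated vs vehicle-treated groups. Read-out = treated/control ratio of the measured endpoint.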

[1] = endpoint: mean survival time, dose: 100.0 mg/kg/injection, schedule: Q01DX009 (ip), vehicle: saline with Tween-80
[2] = endpoint: mean survival time, dose: 100.0 mg/kg/injection, schedule: Q04DX003 (ip), vehicle: saline with Tween-80
[3] = endpoint: mean survival time, dose: 200.0 mg/kg/injection, schedule: Q01DX009 (ip), vehicle: saline with Tween-80
[4] = endpoint: mean survival time, dose: 200.0 mg/kg/injection, schedule: Q04DX003 (ip), vehicle: saline with Tween-80
[5] = endpoint: mean survival time, dose: 400.0 mg/kg/injection, schedule: Q01DX009 (ip), vehicle: saline with Tween-80
[6] = endpoint: mean survival time, dose: 400.0 mg/kg/injection, schedule: Q04DX003 (ip), vehicle: saline with Tween-80
[7] = endpoint: mean survival time, dose: 12.5 mg/kg/injection, schedule: Q01DX005 (ip), vehicle: distilled water + Tween-80
[8] = endpoint: mean survival time, dose: 25.0 mg/kg/injection, schedule: Q01DX005 (ip), vehicle: distilled water + Tween-80
[9] = endpoint: mean survival time, dose: 50.0 mg/kg/injection, schedule: Q01DX005 (ip), vehicle: distilled water + Tween-80
[10] = endpoint: mean survival time, dose: 100.0 mg/kg/injection, schedule: Q01DX005 (ip), vehicle: distilled water + Tween-80
[11] = endpoint: mean survival time, dose: 12.5 mg/kg/injection, schedule: Q01DX009 (ip), vehicle: saline
[12] = endpoint: mean survival time, dose: 50.0 mg/kg/injection, schedule: Q01DX009 (ip), vehicle: saline
[13] = endpoint: mean survival time, dose: 100.0 mg/kg/injection, schedule: Q01DX009 (ip), vehicle: saline
[14] = endpoint: mean survival time, dose: 200.0 mg/kg/injection, schedule: Q01DX009 (ip), vehicle: saline
[15] = endpoint: mean survival time, dose: 100.0 mg/kg/injection, schedule: Q01DX001 (ip), vehicle: saline with Tween-80
[16] = endpoint: mean survival time, dose: 200.0 mg/kg/injection, schedule: Q01DX001 (ip), vehicle: saline with Tween-80
[17] = endpoint: mean survival time, dose: 400.0 mg/kg/injection, schedule: Q01DX001 (ip), vehicle: saline with Tween-80
[18] = endpoint: mean survival time, dose: 100.0 mg/kg/injection, schedule: Q04DX002 (ip), vehicle: saline with Tween-80
[19] = endpoint: mean survival time, dose: 200.0 mg/kg/injection, schedule: Q04DX002 (ip), vehicle: saline with Tween-80
[20] = endpoint: mean survival time, dose: 50.0 mg/kg/injection, schedule: Q01DX009 (ip), vehicle: saline with Tween-80

Measured: T/C

O=C(O)C1C2OC3C(OC(=O)C31)C2Br (configuration not stated)
inactive: [1] 96 % of control | [2] 91 % of control | [3] 93 % of control | [4] 89 % of control | [5] 91 % of control | [6] 89 % of control

O=c1ccn(C2CC(O)C(COC(c3ccccc3)(c3ccccc3)c3ccccc3)O2)c(=O)[nH]1 (configuration not stated)
inactive: endpoint: median survival time, dose: 12.5 mg/kg/injection, schedule: Q01DX005 (ip), vehicle: saline with Tween-80 98 % of control and 97 % of control | endpoint: median survival time, dose: 25.0 mg/kg/injection, schedule: Q01DX005 (ip), vehicle: saline with Tween-80 99 % of control and 92 % of control | endpoint: median survival time, dose: 50.0 mg/kg/injection, schedule: Q01DX005 (ip), vehicle: saline with Tween-80 99 % of control and 96 % of control | endpoint: median survival time, dose: 100.0 mg/kg/injection, schedule: Q01DX005 (ip), vehicle: saline with Tween-80 100 % of control and 96 % of control | endpoint: median survival time, dose: 200.0 mg/kg/injection, schedule: Q01DX005 (ip), vehicle: saline with Tween-80 100 % of control and 98 % of control

Cn1c(=O)c2c(ncn2CC(=O)NNC(=S)Nc2ccccc2)n(C)c1=O
inactive: [7] 121 % of control | [8] 121 % of control | [9] 93 % of control | [10] 106 % of control | endpoint: mean survival time, dose: 200.0 mg/kg/injection, schedule: Q01DX005 (ip), vehicle: distilled water + Tween-80 93 % of control

O=[N+]([O-])c1nccn1CC(O)CO (configuration not stated)
inactive: [11] 102 % of control | endpoint: mean survival time, dose: 25.0 mg/kg/injection, schedule: Q01DX009 (ip), vehicle: saline 105 % of control | [12] 102 % of control | [13] 101 % of control | [14] 102 % of control | endpoint: mean survival time, dose: 400.0 mg/kg/injection, schedule: Q01DX009 (ip), vehicle: saline 103 % of control

CC(=O)CC(=O)C1CCC(C(=O)CC(C)=O)CC1 (configuration not stated)
inactive: [2] 95 % of control | [4] 91 % of control

Nc1ccn(C2CC(O)C(CO)C2)c(=O)n1 (configuration not stated)
inactive: endpoint: mean survival time, dose: 100.0 mg/kg/injection, schedule: Q01DX001 (ip), vehicle: saline 100 % of control | endpoint: mean survival time, dose: 200.0 mg/kg/injection, schedule: Q01DX001 (ip), vehicle: saline 105 % of control | endpoint: mean survival time, dose: 400.0 mg/kg/injection, schedule: Q01DX001 (ip), vehicle: saline 97 % of control

N#CC(C#N)C(O)c1c[nH]c2ccccc12 (configuration not stated)
inactive: [15] 102 % of control | [16] 96 % of control | [17] 94 % of control

OC1C2CCC(C2)C1C(O)(C(F)(F)F)C(F)(F)F (configuration not stated)
inactive: endpoint: mean survival time, dose: 3.13 mg/kg/injection, schedule: Q01DX009 (ip), vehicle: saline 104 % of control | endpoint: mean survival time, dose: 6.25 mg/kg/injection, schedule: Q01DX009 (ip), vehicle: saline 98 % of control | endpoint: mean survival time, dose: 6.25 mg/kg/injection, schedule: Q04DX003 (ip), vehicle: saline with Tween-80 98 % of control | [11] 103 % of control | endpoint: mean survival time, dose: 12.5 mg/kg/injection, schedule: Q04DX003 (ip), vehicle: saline with Tween-80 98 % of control

Cc1ccc(Nc2nc(N)nc3c2ncn3C2OC(CO)C(O)C2O)cc1 (configuration not stated)
inactive: [7] 95 % of control | [8] 90 % of control | [9] 98 % of control | [10] 108 % of control

c1ccc2c[n+](C[n+]3ccc4ccccc4c3)ccc2c1
inactive: [12] 96 % of control | [13] 102 % of control | [14] 102 % of control

O=C1CCC(C(=O)Nc2ccc(Cl)cc2Cl)N1 (configuration not stated)
inactive: endpoint: mean survival time, dose: 25.0 mg/kg/injection, schedule: Q04DX002 (ip), vehicle: saline with Tween-80 98 % of control | endpoint: mean survival time, dose: 50.0 mg/kg/injection, schedule: Q04DX002 (ip), vehicle: saline with Tween-80 98 % of control | [18] 98 % of control | [19] 118 % of control | endpoint: mean survival time, dose: 400.0 mg/kg/injection, schedule: Q04DX002 (ip), vehicle: saline with Tween-80 97 % of control

CCN(CC)C(=O)Nc1cc(Cl)ccc1Cl
inactive: [18] 97 % of control | [19] 101 % of control

Oc1c(Cl)c(Cl)c(Cl)c(Cl)c1Cl (tested in a mixture with another compound)
inactive: endpoint: mean survival time, dose: 25.0 mg/kg/injection, schedule: Q04DX003 (ip), vehicle: saline 96 % of control | endpoint: mean survival time, dose: 50.0 mg/kg/injection, schedule: Q04DX003 (ip), vehicle: saline 103 % of control | endpoint: mean survival time, dose: 100.0 mg/kg/injection, schedule: Q04DX003 (ip), vehicle: saline 96 % of control

O=c1cc(NCCCOc2ccccc2)[nH]c(=O)[nH]1
inactive: [15] 98 % of control | [16] 98 % of control | [17] 98 % of control

O=Cc1ccc(/C=C2\C=Cc3ccccc32)cc1
inactive: [1] 101 % of control | [3] 94 % of control | [5] 103 % of control

Cc1cccc(/C=N\OCc2ccccc2)n1
inactive: [1] 98 % of control | [3] 113 % of control

C=CC1CN(CCc2cc3ccccc3[nH]2)CCC1CC(=O)OCC (configuration not stated)
inactive: [2] 97 % of control | [4] 101 % of control | [6] 94 % of control

CC(=O)OC1(C)CC(C)(C)N=[N+]1[O-] (configuration not stated)
inactive: endpoint: mean survival time, dose: 25.0 mg/kg/injection, schedule: Q01DX009 (ip), vehicle: Klucel (hydroxypropylcellulose) (HPC) 96 % of control | endpoint: mean survival time, dose: 50.0 mg/kg/injection, schedule: Q01DX009 (ip), vehicle: Klucel (hydroxypropylcellulose) (HPC) 101 % of control | endpoint: mean survival time, dose: 100.0 mg/kg/injection, schedule: Q01DX009 (ip), vehicle: Klucel (hydroxypropylcellulose) (HPC) 101 % of control | endpoint: mean survival time, dose: 200.0 mg/kg/injection, schedule: Q01DX009 (ip), vehicle: Klucel (hydroxypropylcellulose) (HPC) 105 % of control

CCCCCCCC(=O)[O][Hg][CH2]C1COC([CH2][Hg][O]C(=O)CCCCCCC)CO1 (configuration not stated)
inactive: endpoint: mean survival time, dose: 6.25 mg/kg/injection, schedule: Q01DX009 (ip), vehicle: saline with Tween-80 106 % of control | endpoint: mean survival time, dose: 12.5 mg/kg/injection, schedule: Q01DX009 (ip), vehicle: saline with Tween-80 96 % of control

CN(C)N=Nc1c(F)cc(F)c(F)c1F
inactive: endpoint: mean survival time, dose: 25.0 mg/kg/injection, schedule: Q01DX009 (ip), vehicle: saline with Tween-80 101 % of control | [20] 104 % of control | [1] 104 % of control

Cc1ccc(NC(=O)Nc2ccccc2C(N)=O)cc1[N+](=O)[O-]
inactive: [20] 94 % of control | [1] 98 % of control

Cc1ccc(NC(=O)c2ccccc2C(=O)O)cc1
inactive: [2] 101 % of control | [4] 97 % of control | [6] 95 % of control
